For test [1], the system named is E. coli. Kind of test: Paper disc experiment (clear zone). To be noted: 24 hours, 35° C. It is filed as cell-based, Escherichia coli. As for the experimental part: (§1) 10^5 cfu/ml of E. coli and S. aureus were sub-cultured in a Mueller Hinton agar, respectively, and then smeared.
(§2) PVPI, ginseng extract, bronopol, PA, NS and PD were introduced to the paper disc, respectively, and left and dried for 5 to 10 minutes. The dried paper disc was put on a culture medium smeared with the E. coli and S. aureus with a sufficient interval, and cultured for 24 hours in a 35° C. incubator and then the size of clear zone was examined and the result is summarized in the following Table 2.

For test [2], the system named is E. coli. In words: Shaking flask method, materials in maintenance medium. It is filed as cell-based, Escherichia coli. To be noted: 35° C., concentration of each material (wt %). As to the method: 3. Experiment Using Shaking Flask Method
A maintenance medium produced with 1% of nutrient broth and 0.5% of NaCl and inoculated with about 10^5 cfu/ml of E. coli was prepared. Materials of PVPI, ginseng extract, bronopol, PA and NS were introduced to the medium, respectively, and reacted at 35° C., and the antibiotic effect was examined using a pour plate method after 6 hours and 24 hours had been passed.
The antibiotic effect in the Table 3 was calculated using the following equation.
Me: Cell number of maintenance medium to which each material is added
Mc: Cell number of maintenance medium to which each material is not added

The test system of test [3] is escherichia coli (E. coli). Kind of test: Measurement of minimal inhibitory concentration (MIC), turbidity. The format is cell-based. To be noted: for minimal inhibitory concentration, E. coli: Table 1, 35° C., 14-16 hours; for E. coli MIC value: Table 2; for MIC value of E. coli (wt %): in Table 3. The source says:
(§3) 1. Measurement of Minimal Inhibitory Concentration (MIC)
(§4) Polyvinylpyrrolidone iodine (hereinafter, abbreviated as “PVPI”), phthalaldehyde (hereinafter, abbreviated as “PA”), potassium disulphite (hereinafter, abbreviated as “PD”) bronopol, norspermidine (hereinafter, abbreviated as “NS), and the ginseng extract were sequentially diluted, respectively, and prepared with various concentrations to prepare MIC measurement specimens. About 10^4-5 cfu/ml of escherichia coli (E. coli) and about 10^4˜5 cfu/ml of staphylococcus aureus (S. aureus) were added to the MIC measurement specimens, respectively. The specimens were cultured at 35° C. for 14-16 hours and then the turbidity was examined, respectively.
(§5) As a comparative example, specimens to which the E. coli and the S. aureus were added to distilled water, respectively, were cultured at the same time, and the minimal inhibitory concentration of the specimens was measured with reference to specimens subsequent to the culture and the turbidity of the comparative example subsequent to the culture.

Test [4] has as its system staphylococcus aureus (S. aureus). Described as above. The format is cell-based. To be noted: for minimal inhibitory concentration, S. aureus: Table 1, 35° C., 14-16 hours; for S. aureus MIC value: Table 2.
Text: as §3, §4, §5

Another test deals with S. aureus. Kind of test: Paper disc experiment (clear zone). It is filed as cell-based, Staphylococcus aureus. To be noted: 24 hours, 35° C. As to the method:
as §1, §2

`O=[N+]([O-])C(Br)(CO)CO` [Bronopol, bronopol, reference compound]: the “E. coli clear zone (mm)” value with E. coli [1] worked out at 10 mm. Further, in the test with E. coli [2], the “Antibiotic effect after 6 hours” value is 99.99% and the “Antibiotic effect after 24 hours” value amounted to 100%. In test [3], the “minimal inhibitory concentration, E. coli” value is on record as “Less than 0.0009% weight %”; the “E. coli MIC value” was determined as 0.156% weight %; the “MIC value of E. coli (wt %)” value was 0.156% wt %. Besides, in test [4], the “minimal inhibitory concentration, S. aureus” value was “Less than 0.0009% weight %” and the “S. aureus MIC value” is reported as 0.156% weight %. For the same molecule, the “S. aureus clear zone (mm)” value with S. aureus came to 10 mm.

For the molecule `NCCCNCCCN` [NS, norspermidine], in the test with E. coli [1], the “E. coli clear zone (mm)” value is 14 mm. For the same molecule, in the test on E. coli [2], the “Antibiotic effect after 6 hours” value was 99.99% and the “Antibiotic effect after 24 hours” value is 100%. In test [3], the “minimal inhibitory concentration, E. coli” value is listed as 0.312% weight %; the “E. coli MIC value” is recorded as 0.312% weight %; the “MIC value of E. coli (wt %)” value was 0.312% wt %. Besides, in test [4], the “minimal inhibitory concentration, S. aureus” value amounted to 0.078% weight % and the “S. aureus MIC value” is 0.078% weight %. The “S. aureus clear zone (mm)” value in the test with S. aureus worked out at 23 mm.

Turning to `O=Cc1ccccc1C=O` [PA, phthalaldehyde], the “E. coli clear zone (mm)” value with E. coli [1] came to 10 mm. Moreover, in the test on E. coli [2], the “Antibiotic effect after 6 hours” value worked out at 99.99% and the “Antibiotic effect after 24 hours” value was determined as 100%. In test [3], the “minimal inhibitory concentration, E. coli” value was 0.156% weight %; the “E. coli MIC value” is less than 0.0009% weight %; the “MIC value of E. coli (wt %)” value is listed as less than 0.0009% wt %. For the same molecule, in test [4], the “minimal inhibitory concentration, S. aureus” value turned out to be 0.156% weight % and the “S. aureus MIC value” is on record as less than 0.0009% weight %. In the test on S. aureus, the “S. aureus clear zone (mm)” value was 11 mm.

As for `O=S([O-])OS(=O)[O-].[K+].[K+]` [PD, potassium disulphite], the “E. coli clear zone (mm)” value in the test on E. coli [1] is given as 12 mm. Further, in test [3], the “minimal inhibitory concentration, E. coli” value came out at 0.156% weight % and the “E. coli MIC value” was found to be 0.156% weight %. For the same molecule, in test [4], the “minimal inhibitory concentration, S. aureus” value was determined as 0.078% weight % and the “S. aureus MIC value” is recorded as 0.078% weight %. The “S. aureus clear zone (mm)” value in the test on S. aureus was found to be 32 mm.

“Polyvinylpyrrolidone iodine [PVPI, reference compound]”: in the test with E. coli [1], the “E. coli clear zone (mm)” value turned out to be 12 mm. Also, in the test with E. coli [2], the “Antibiotic effect after 6 hours” value amounted to 99.99% and the “Antibiotic effect after 24 hours” value is 100%. In test [3], the “minimal inhibitory concentration, E. coli” value turned out to be 1.875% weight %; the “E. coli MIC value” is given as 1.875% weight %; the “MIC value of E. coli (wt %)” value was 1.875% wt %. Moreover, in test [4], the “minimal inhibitory concentration, S. aureus” value is reported as 1.875% weight % and the “S. aureus MIC value” is listed as 1.875% weight %. For the same molecule, the “S. aureus clear zone (mm)” value in the test on S. aureus turned out to be 30 mm.
